Data reported in the NIST ThermoML archive (doi:10.1016/j.jct.2017.03.010).
± gives the expanded uncertainty stated by the source.

Conditions: Liquid, Closed cell (Static) method

FC(F)C(F)F [1,1,2,2-tetrafluoroethane]
vapor or sublimation pressure (303.15 K): 613.8 ± 2.1 kPa | vapor or sublimation pressure (313.15 K): 817.1 ± 2.7 kPa | vapor or sublimation pressure (323.15 K): 1065.9 ± 3.5 kPa | vapor or sublimation pressure (333.15 K): 1368.5 ± 4.5 kPa | vapor or sublimation pressure (343.15 K): 1730.2 ± 5.7 kPa
